Experimental data published in ChEMBL document CHEMBL3885881, “DrugMatrix”.

Organism: Rattus norvegicus
Test: DrugMatrix - Regimen: Daily Repeat
Assay type: toxicity, organism-based, Sprague-Dawley
Design: regimen Daily Repeat, gender Male, age 6-8 weeks
Conditions: in vivo, po, route oral GAVAGE, […]; for ABSOLUTE BASOPHIL / ABSOLUTE EOSINOPHIL / ABSOLUTE LYMPHOCYTE / ABSOLUTE MONOCYTE / ABSOLUTE SEGMENTED NEUTROPHIL / BASOPHIL / EOSINOPHIL / ERYTHROCYTE COUNT / HEMATOCRIT / HEMOGLOBIN / LEUKOCYTE COUNT / LYMPHOCYTE / MEAN CORPUSCULAR HEMOGLOBIN / MEAN CORPUSCULAR HEMOGLOBIN CONCENTRATION / MEAN CORPUSCULAR VOLUME / MONOCYTE / NEUTROPHIL / NUCLEATED RED BLOOD CELLS / PLATELET COUNT: tissue Blood; for ALANINE AMINOTRANSFERASE / ALBUMIN / ALKALINE PHOSPHATASE / ASPARTATE AMINOTRANSFERASE / BLOOD UREA NITROGEN / CARBON DIOXIDE / CHLORIDE / CHOLESTEROL / CREATINE PHOSPHOKINASE / CREATININE / GLUCOSE / LACTATE DEHYDROGENASE / LIPASE / PHOSPHORUS / POTASSIUM / SODIUM / TOTAL BILIRUBIN / TOTAL PROTEIN / URIC ACID: tissue Plasma
[1] = 81 mg/kg, 72 h, dose level High, time 3 day
[2] = 81 mg/kg, 120 h, dose level High, time 5 day
[3] = 72 h, dose 8.1 mg/Kg, dose level Low, time 3 day
[4] = 120 h, dose 8.1 mg/Kg, dose level Low, time 5 day

Nc1ccc(Cc2ccc(N)cc2)cc1
ABSOLUTE BASOPHIL [1]: 0 CELLS/uL | ABSOLUTE EOSINOPHIL [1]: 75.33 CELLS/uL | ABSOLUTE LYMPHOCYTE [1]: 15902.67 CELLS/uL | ABSOLUTE MONOCYTE [1]: 589 CELLS/uL | ABSOLUTE SEGMENTED NEUTROPHIL [1]: 3066.33 CELLS/uL | BASOPHIL [1]: 0% | EOSINOPHIL [1]: 0.33% | ERYTHROCYTE COUNT [1]: 5.52 x10E6/uL | HEMATOCRIT [1]: 34.27% | HEMOGLOBIN [1]: 13.27 G/DL | LEUKOCYTE COUNT [1]: 19.63 x10E3/uL | LYMPHOCYTE [1]: 81.33% | MEAN CORPUSCULAR HEMOGLOBIN [1]: 24.13 pg | MEAN CORPUSCULAR HEMOGLOBIN CONCENTRATION [1]: 38.83 G/DL | MEAN CORPUSCULAR VOLUME [1]: 62.2 fL | MONOCYTE [1]: 3% | NEUTROPHIL [1]: 15.33% | NUCLEATED RED BLOOD CELLS [1]: 0.33 /100WBC | PLATELET COUNT [1]: 1017.33 x10E3/uL | ALANINE AMINOTRANSFERASE [1]: 253.67 u/L | ALBUMIN [1]: 3.4 G/DL | ALKALINE PHOSPHATASE [1]: 742 u/L | ASPARTATE AMINOTRANSFERASE [1]: 450.67 u/L | BLOOD UREA NITROGEN [1]: 10.67 mg/dL | CARBON DIOXIDE [1]: 24.33 mmol/L | CHLORIDE [1]: 102.33 MEQ/L | CHOLESTEROL [1]: 143.67 mg/dL | CREATINE PHOSPHOKINASE [1]: 1027.33 u/L | CREATININE [1]: 0.14 mg/dL | GLUCOSE [1]: 152 mg/dL | LACTATE DEHYDROGENASE [1]: 723.67 u/L | LIPASE [1]: 11 u/L | PHOSPHORUS [1]: 11.77 mg/dL | POTASSIUM [1]: 5.87 MEQ/L | SODIUM [1]: 142.6 MEQ/L | TOTAL BILIRUBIN [1]: 0.9 mg/dL | TOTAL PROTEIN [1]: 5.13 G/DL | URIC ACID [1]: 1.27 mg/dL | ABSOLUTE BASOPHIL [2]: 0 CELLS/uL | ABSOLUTE EOSINOPHIL [2]: 0 CELLS/uL | ABSOLUTE LYMPHOCYTE [2]: 23023 CELLS/uL | ABSOLUTE MONOCYTE [2]: 1729.67 CELLS/uL | ABSOLUTE SEGMENTED NEUTROPHIL [2]: 3714 CELLS/uL | BASOPHIL [2]: 0% | EOSINOPHIL [2]: 0% | ERYTHROCYTE COUNT [2]: 5.81 x10E6/uL | HEMATOCRIT [2]: 34.63% | HEMOGLOBIN [2]: 13.53 G/DL | LEUKOCYTE COUNT [2]: 28.47 x10E3/uL | LYMPHOCYTE [2]: 81% | MEAN CORPUSCULAR HEMOGLOBIN [2]: 23.33 pg | MEAN CORPUSCULAR HEMOGLOBIN CONCENTRATION [2]: 39.1 G/DL | MEAN CORPUSCULAR VOLUME [2]: 59.67 fL | MONOCYTE [2]: 6% | NEUTROPHIL [2]: 13% | NUCLEATED RED BLOOD CELLS [2]: 0 /100WBC | PLATELET COUNT [2]: 1124.33 x10E3/uL | ALANINE AMINOTRANSFERASE [2]: 131.67 u/L | ALBUMIN [2]: 3.4 G/DL | ALKALINE PHOSPHATASE [2]: 589 u/L | ASPARTATE AMINOTRANSFERASE [2]: 255.33 u/L | BLOOD UREA NITROGEN [2]: 14 mg/dL | CARBON DIOXIDE [2]: 28.33 mmol/L | CHLORIDE [2]: 101.67 MEQ/L | CHOLESTEROL [2]: 138.33 mg/dL | CREATINE PHOSPHOKINASE [2]: 541 u/L | CREATININE [2]: 0.23 mg/dL | GLUCOSE [2]: 138.33 mg/dL | LACTATE DEHYDROGENASE [2]: 636.33 u/L | LIPASE [2]: 11.67 u/L | PHOSPHORUS [2]: 9.3 mg/dL | POTASSIUM [2]: 5.58 MEQ/L | SODIUM [2]: 142.97 MEQ/L | TOTAL BILIRUBIN [2]: 0.83 mg/dL | TOTAL PROTEIN [2]: 5.7 G/DL | URIC ACID [2]: 1.2 mg/dL | ABSOLUTE BASOPHIL [3]: 0 CELLS/uL | ABSOLUTE EOSINOPHIL [3]: 0 CELLS/uL | ABSOLUTE LYMPHOCYTE [3]: 10998 CELLS/uL | ABSOLUTE MONOCYTE [3]: 210.33 CELLS/uL | ABSOLUTE SEGMENTED NEUTROPHIL [3]: 1658.33 CELLS/uL | BASOPHIL [3]: 0% | EOSINOPHIL [3]: 0% | ERYTHROCYTE COUNT [3]: 5.48 x10E6/uL | HEMATOCRIT [3]: 34.13% | HEMOGLOBIN [3]: 13.5 G/DL | LEUKOCYTE COUNT [3]: 12.87 x10E3/uL | LYMPHOCYTE [3]: 85.67% | MEAN CORPUSCULAR HEMOGLOBIN [3]: 24.7 pg | MEAN CORPUSCULAR HEMOGLOBIN CONCENTRATION [3]: 39.6 G/DL | MEAN CORPUSCULAR VOLUME [3]: 62.3 fL | MONOCYTE [3]: 1.67% | NEUTROPHIL [3]: 12.67% | NUCLEATED RED BLOOD CELLS [3]: 0 /100WBC | PLATELET COUNT [3]: 1052.33 x10E3/uL | ALANINE AMINOTRANSFERASE [3]: 74.67 u/L | ALBUMIN [3]: 3.93 G/DL | ALKALINE PHOSPHATASE [3]: 451 u/L | ASPARTATE AMINOTRANSFERASE [3]: 94.33 u/L | BLOOD UREA NITROGEN [3]: 12 mg/dL | CARBON DIOXIDE [3]: 24 mmol/L | CHLORIDE [3]: 102.67 MEQ/L | CHOLESTEROL [3]: 79 mg/dL | CREATINE PHOSPHOKINASE [3]: 294.67 u/L | CREATININE [3]: 0.2 mg/dL | GLUCOSE [3]: 157.33 mg/dL | LACTATE DEHYDROGENASE [3]: 177 u/L | LIPASE [3]: 12.33 u/L | PHOSPHORUS [3]: 12.33 mg/dL | POTASSIUM [3]: 5.95 MEQ/L | SODIUM [3]: 143.97 MEQ/L | TOTAL BILIRUBIN [3]: 0.17 mg/dL | TOTAL PROTEIN [3]: 5.47 G/DL | URIC ACID [3]: 1.27 mg/dL | ABSOLUTE BASOPHIL [4]: 0 CELLS/uL | ABSOLUTE EOSINOPHIL [4]: 0 CELLS/uL | ABSOLUTE LYMPHOCYTE [4]: 11058.67 CELLS/uL | ABSOLUTE MONOCYTE [4]: 46 CELLS/uL | ABSOLUTE SEGMENTED NEUTROPHIL [4]: 1295.33 CELLS/uL | BASOPHIL [4]: 0% | EOSINOPHIL [4]: 0% | ERYTHROCYTE COUNT [4]: 5.5 x10E6/uL | HEMATOCRIT [4]: 34.53% | HEMOGLOBIN [4]: 13.8 G/DL | LEUKOCYTE COUNT [4]: 12.4 x10E3/uL | LYMPHOCYTE [4]: 89.67% | MEAN CORPUSCULAR HEMOGLOBIN [4]: 25.13 pg | MEAN CORPUSCULAR HEMOGLOBIN CONCENTRATION [4]: 39.97 G/DL | MEAN CORPUSCULAR VOLUME [4]: 62.83 fL | MONOCYTE [4]: 0.33% | NEUTROPHIL [4]: 10% | NUCLEATED RED BLOOD CELLS [4]: 0 /100WBC | PLATELET COUNT [4]: 1265 x10E3/uL | ALANINE AMINOTRANSFERASE [4]: 63.67 u/L | ALBUMIN [4]: 4.2 G/DL | ALKALINE PHOSPHATASE [4]: 474 u/L | ASPARTATE AMINOTRANSFERASE [4]: 88.67 u/L | BLOOD UREA NITROGEN [4]: 11.33 mg/dL | CARBON DIOXIDE [4]: 35.33 mmol/L | CHLORIDE [4]: 100.33 MEQ/L | CHOLESTEROL [4]: 59.33 mg/dL | CREATINE PHOSPHOKINASE [4]: 280.67 u/L | CREATININE [4]: 0.16 mg/dL | GLUCOSE [4]: 138.67 mg/dL | LACTATE DEHYDROGENASE [4]: 317.67 u/L | LIPASE [4]: 10.67 u/L | PHOSPHORUS [4]: 10.57 mg/dL | POTASSIUM [4]: 6.26 MEQ/L | SODIUM [4]: 144.83 MEQ/L | TOTAL BILIRUBIN [4]: 0.2 mg/dL | TOTAL PROTEIN [4]: 5.93 G/DL | URIC ACID [4]: 1.4 mg/dL
